Measurements from patent publication US20060282906A1, “Non-transgenic rodent model of Alzheimer's disease” (priority 2005, published 2006).
Where no end group is shown, it is not given here.

Tests used:
Male Wistar rats [1] = assay: Montoya staircase test; type: in vivo, rat
Description: (§1) Male Wistar rats (250 to 300 grams; Charles River, Montreal, Quebec) were divided into 4 groups: intracerebroventricular injections of Aβ(25-35) (BACHEM, Torrance, Calif.); endothelin injections into the right striatum; both Aβ(25-35) and striatal endothelin injections; and sham procedures. The Aβ(25-35) fragment was used to reduce the possibility of rapid coagulation and to allow diffusion of the peptide into the brain.
(§2) All rats were anesthetized using 40 mg/kg of pentobarbital (Somnotol; MTC Pharmaceuticals, Cambridge, Ontario) intraperitoneally. Body temperature was maintained at 37° C. Aβ(25-35) (50 nmol in 10 μL of saline) was injected bilaterally into the lateral ventricles. Aβ(25-35) was prepared according to established methods (Sigurdsson, et al. (1997) supra). Aβ(25-35) (50 nmol in 10 μL of saline at a rate of 1 μL/minute) was injected bilaterally into the lateral ventricles via a stainless-steel cannula (23-gauge; anterior/posterior −0.8, medial/lateral ±1.4, and dorsal/ventral −4.0 below dura). Two endothelin injections (6 pmol in 3 μL of saline), 1 mm apart, were made into the right striatum (Sigurdsson, et al. (1997) supra). Sham procedures involved all the surgical steps without injections of Aβ(25-35) or endothelin. After wound suture, all rats received […] of buprenorphine intramuscularly and were allowed to recover from surgery for 7 days.
For training (n=10 for each group), rats were placed into the Montoya staircase apparatus (Montoya, et al. (1991) supra) at the same time every day for 8 days (days −8 through −1) and were allowed to perform the test for 20 minutes. Rats were food-deprived for 1 day (day −9) before testing, as well as on day −8. On days −7 though −1, rats were fed 10 grams of their normal chow so that they maintained their body weight at ˜85%. Three NOYES LAB ANIMAL PRECISION FOOD PELLETS™ (Research Diets, Inc., New Brunswick, N.J.) were placed in each of the 14 wells (7 on each side). Pellets eaten were recorded from each well. Re-testing trials, which were performed 7 days after the surgical procedures (day 0), were performed for 8 days in the same way as the training trials (days 8 through 15).
Digital photographs were taken using a light microscope (Leitz Diaplan). An investigator was blinded to the identification of the rat sections while analysis was being performed. […] Also, relative optical density measurements and numbers of stained cells or accumulations were measured in entire brain areas for quantitative analysis and statistically analyzed with ANOVA and Tukey post hoc test with a significance level of P<0.05. […] The staircase data are expressed as the mean±SEM. […] Data are expressed as mean±SEM. […]

Male Wistar rats [2] = assay: Congo Red histochemistry of rat brain sections; type: in vivo; details: Aβ: lesions in fornix, anterior hippocampus, CA1 hippocampus; endothelin: infarct
Description: as §1
as §2, with “days. […]” for “days.”

Sequence: GSNKGAIIGLM [Aβ, β-amyloid fragment (25-35), 50 nmol injected bilaterally into the lateral ventricles of rats]
- Staircase test performance, ipsilateral paw (Male Wistar rats [1]; day 8 (first day of re-testing), mean±SEM): 73±8 % of pretreatment
- total number of pellets eaten (Male Wistar rats [1]; day 8 compared with the last day of training, disappeared by day 9): significant deficit
- Congo Red staining (Male Wistar rats [2]): stained amyloid positive with Congo Red
